Measurements taken from patent publication US11433055B2, “Chromane monobactam compounds for the treatment of bacterial infections” (priority 2017, dated 2022).
Structures can show the parent of a compound that is named as a salt.

Legend:
Assay type in all cases: cell-based
Conditions in all cases: lowest concentration inhibiting 95% of bacterial growth; in the presence of β lactamase inhibitor (BLi, Relebactam); 22 hours, 35±2° C., OD600
[1] = tested on: Acinetobacter baumannii expressing TEM-1, AmpC, and Oxa-24/40 (CL6188)
Method: (§1) Antibiotic Activity: Determination of Growth Inhibitory Concentration
(§2) The concentrations of compounds required to inhibit the growth of various strains of bacteria were determined in an assay that assessed bacterial growth by measuring optical density at 600 nm (OD600). The bacterial strains tested included the clinical strains Escherichia coli expressing NDM-1 (CLB30016), Klebsiella pneumoniae expressing KPC-1 (CL6569), Acinetobacter baumannii expressing TEM-1, AmpC, and Oxa-24/40 (CL6188) and Pseudomonas aeruginosa expressing AmpC (CL5701). All compounds were tested in the presence of a β lactamase inhibitor (BLi, Relebactam) in 384-well microplates. The clinical strains were stored as frozen single use stocks, thawed and diluted into 1.1× cation-adjusted Mueller-Hinton II broth to achieve approximately 2×10^5 CFU/mL. Test compounds were dissolved in DMSO and diluted 1:50 in the assay, resulting in a final concentration range of 100 μM to 0.098 μM. On the day of the assay, 1 μL of test compound was added to the plate followed by 4 μL of 50 μg/mL BLi in MOPS buffer and 45 μL of diluted bacteria. Plates were centrifuged at 1000 rpm for 30 seconds, shaken at approximately 800 rpm for 1 minute, and incubated at 35±2° C. for 22 hours. The concentration of BLi used in the assay was […]. At the end of the incubation, absorbance at 600 nm was determined using a spectrophotometer. Inhibition was quantitated by identifying the lowest concentration of test compound that was required to inhibit 95% of the growth of the bacteria. The results for Examples 1-39 are reported in Table I, expressed as the concentration of compound that inhibited 95% of bacterial growth (Minimum Inhibitory Threshold Concentration; MITC95).

[2] = tested on: Escherichia coli expressing NDM-1 (CLB30016)
Method: as §1, §2

[3] = tested on: Klebsiella pneumoniae expressing KPC-1 (CL6569)
Method: as §1, §2

[4] = tested on: Pseudomonas aeruginosa expressing AmpC (CL5701)
Method: as §1, §2

CC1(C)[C@H](NC(=O)/C(=N\O[C@](C)(C(=O)O)[C@H]2CCc3cc(C4CN=C(NC[C@@H](O)CN)NC4)ccc3O2)c2csc(N)n2)C(=O)N1OS(=O)(=O)O.O=CO (stereo partly drawn) [Example 29, 2-(((S)-3-amino-2-hydroxypropyl)amino)-5-((R)-2-((S)-1-((((Z)-1-(2-aminothiazol-4-yl)-2-(((S)-2,2-dimethyl-4-oxo-1-(sulfooxy)azetidin-3-yl)amino)-2-oxoethylidene)amino)oxy)-1-carboxyethyl)chroman-6-yl)-3,4,5,6-tetrahydropyrimidin-1-ium formate]
AB_CL6188 MITC95 [1]: 3.125 µM
EC_CLB30016 MITC95 [2]: 25 µM
KP_CL6569 MITC95 [3]: 1.563 µM
PA_CL5701 MITC95 [4]: 6.25 µM

CC1(C)[C@H](NC(=O)/C(=N\O[C@](C)(C(=O)O)[C@H]2CCc3cc(C4CN=C(NCCN)NC4)ccc3O2)c2csc(N)n2)C(=O)N1OS(=O)(=O)O.O=CO (stereo partly drawn) [Example 30, 2-((2-aminoethyl)amino)-5-((R)-2-((S)-1-((((Z)-1-(2-aminothiazol-4-yl)-2-(((S)-2,2-dimethyl-4-oxo-1-(sulfooxy)azetidin-3-yl)amino)-2-oxoethylidene)amino)oxy)-1-carboxyethyl)chroman-6-yl)-3,4,5,6-tetrahydropyrimidin-1-ium formate]
AB_CL6188 MITC95 [1]: 25 µM
EC_CLB30016 MITC95 [2]: 25 µM
KP_CL6569 MITC95 [3]: 3.125 µM
PA_CL5701 MITC95 [4]: 6.25 µM

CC1(C)[C@H](NC(=O)/C(=N\O[C@](C)(C(=O)O)[C@H]2CCc3cc(C4CN=C(NC(CN)CN)NC4)ccc3O2)c2csc(N)n2)C(=O)N1OS(=O)(=O)O.O=CO (stereo partly drawn) [Example 31, 5-((R)-2-((S)-1-((((Z)-1-(2-aminothiazol-4-yl)-2-(((S)-2,2-dimethyl-4-oxo-1-(sulfooxy)azetidin-3-yl)amino)-2-oxoethylidene)amino)oxy)-1-carboxyethyl)chroman-6-yl)-2-((1,3-diaminopropan-2-yl)amino)-3,4,5,6-tetrahydropyrimidin-1-ium formate]
AB_CL6188 MITC95 [1]: 3.125 µM
EC_CLB30016 MITC95 [2]: 6.25 µM
KP_CL6569 MITC95 [3]: 0.3906 µM
PA_CL5701 MITC95 [4]: 3.125 µM

CC1(C)[C@H](NC(=O)/C(=N\O[C@](C)(C(=O)O)[C@H]2CCc3cc(C4=CN=C(NCCCN)NC4)ccc3O2)c2csc(N)n2)C(=O)N1OS(=O)(=O)O [Example 32, 2-((3-aminopropyl)amino)-5-((R)-2-((S)-1-((((Z)-1-(2-aminothiazol-4-yl)-2-(((S)-2,2-dimethyl-4-oxo-1-(sulfooxy)azetidin-3-yl)amino)-2-oxoethylidene)amino)oxy)-1-carboxyethyl)chroman-6-yl)-3,4-dihydropyrimidin-1-ium Formate]
AB_CL6188 MITC95 [1]: 3.125 µM
EC_CLB30016 MITC95 [2]: 3.125 µM
KP_CL6569 MITC95 [3]: 0.1953 µM
PA_CL5701 MITC95 [4]: 3.125 µM

CC1(C)[C@H](NC(=O)/C(=N\O[C@](C)(C(=O)O)[C@H]2CCc3cc(-c4cnc(NCCCN)nc4)ccc3O2)c2csc(N)n2)C(=O)N1OS(=O)(=O)O [Example 33, 3-((5-((R)-2-((S)-1-((((Z)-1-(2-aminothiazol-4-yl)-2-(((S)-2,2-dimethyl-4-oxo-1-(sulfooxy)azetidin-3-yl)amino)-2-oxoethylidene)amino)oxy)-1-carboxyethyl)chroman-6-yl)pyrimidin-2-yl)amino)propan-1-aminium Formate]
AB_CL6188 MITC95 [1]: 3.125 µM
EC_CLB30016 MITC95 [2]: 6.25 µM
KP_CL6569 MITC95 [3]: 0.3906 µM
PA_CL5701 MITC95 [4]: 6.25 µM

C[n+]1cc(-c2ccc3c(c2)CC[C@H]([C@](C)(O/N=C(\C(=O)N[C@@H]2C(=O)N(OS(=O)(=O)[O-])C2(C)C)c2csc(N)n2)C(=O)O)O3)ccc1NCCN [Example 34, mono((S)-3-((Z)-2-(2-aminothiazol-3-ium-4-yl)-2-(((S)-1-((R)-6-(6-((2-ammonioethyl)amino)-1-methylpyridin-1-ium-3-yl)chroman-2-yl)-1-carboxy-ethoxy)imino)acetamido)-2,2-dimethyl-4-oxoazetidin-1-yl sulfate) mono(2,2,2-trifluoroacetate)]
AB_CL6188 MITC95 [1]: 12.5 µM
EC_CLB30016 MITC95 [2]: 25 µM
KP_CL6569 MITC95 [3]: 0.78 µM
PA_CL5701 MITC95 [4]: 25 µM

C[n+]1cc(-c2ccc3c(c2)CC[C@H](CO/N=C(\C(=O)N[C@@H]2C(=O)N(OS(=O)(=O)[O-])C2(C)C)c2csc(N)n2)O3)ccc1NCCN [Example 35, mono((R)-3-((Z)-2-(2-aminothiazol-3-ium-4-yl)-2-((((R)-6-(6-((2-ammonioethyl)amino)-1-methyl-pyridin-1-ium-3-yl)chroman-2-yl)methoxy)imino)acetamido)-2,2-dimethyl-4-oxoazetidin-1-yl sulfate) mono(2,2,2-trifluoroacetate)]
AB_CL6188 MITC95 [1]: 6.25 µM
EC_CLB30016 MITC95 [2]: 25 µM
KP_CL6569 MITC95 [3]: 1.281 µM
PA_CL5701 MITC95 [4]: 50 µM

C[n+]1cc(-c2ccc3c(c2)CC[C@@H](CO/N=C(\C(=O)N[C@@H]2C(=O)N(OS(=O)(=O)[O-])C2(C)C)c2csc(N)n2)O3)ccc1NCCN [Example 36, mono((R)-3-((Z)-2-(2-aminothiazol-3-ium-4-yl)-2-((((S)-6-(6-((2-ammonioethyl)amino)-1-methyl-pyridin-1-ium-3-yl)chroman-2-yl)methoxy)imino)acetamido)-2,2-dimethyl-4-oxoazetidin-1-yl sulfate) mono(2,2,2-trifluoroacetate)]
AB_CL6188 MITC95 [1]: 3.125 µM
EC_CLB30016 MITC95 [2]: 12.5 µM
KP_CL6569 MITC95 [3]: 0.7813 µM
PA_CL5701 MITC95 [4]: 6.25 µM

C[n+]1cc(-c2ccc3c(c2)OCC(CO/N=C(\C(=O)N[C@@H]2C(=O)N(OS(=O)(=O)[O-])C2(C)C)c2csc(N)n2)C3)ccc1NCCN.O=C(O)C(F)(F)F (stereo partly drawn) [Example 38, mono((S)-3-((Z)-2-(2-aminothiazol-3-ium-4-yl)-2-((((S)-7-(6-((2-ammonioethyl)amino)-1-methylpyridin-1-ium-3-yl)chroman-3-yl)methoxy)imino)acetamido)-2,2-dimethyl-4-oxoazetidin-1-yl sulfate) mono(2,2,2-trifluoroacetate)]
AB_CL6188 MITC95 [1]: 6.25 µM
EC_CLB30016 MITC95 [2]: 6.25 µM
KP_CL6569 MITC95 [3]: 0.3906 µM
PA_CL5701 MITC95 [4]: 6.25 µM

CC1(C)[C@H](NC(=O)/C(=N\O[C@](C)(C(=O)O)[C@H]2CCc3cc(-c4ccc5[n+](c4)CC(CN)CN5CCN)ccc3O2)c2csc(N)n2)C(=O)N1OS(=O)(=O)[O-].O=CO (stereo partly shown) [Example 39]
AB_CL6188 MITC95 [1]: 7.292 µM
EC_CLB30016 MITC95 [2]: 12.5 µM
KP_CL6569 MITC95 [3]: 0.3255 µM
PA_CL5701 MITC95 [4]: 3.125 µM

CC1(C)[C@H](NC(=O)/C(=N\O[C@](C)(C(=O)O)[C@H]2CCc3cc(-c4cn(C[C@@H](O)CN)[n+](C[C@@H]5CCNC5)c4)ccc3O2)c2csc(N)n2)C(=O)N1OS(=O)(=O)O.O=C([O-])C(F)(F)F [Example 40, Mono((S)-3-((Z)-2-(((S)-1-((R)-6-(1-((S)-3-amino-2-hydroxypropyl)-2-((R)-pyrrolidin-3-ylmethyl)-1H-pyrazol-2-ium-4-yl)chroman-2-yl)-1-carboxyethoxy)imino)-2-(2-aminothiazol-4-yl)acetamido)-2,2-dimethyl-4-oxoazetidin-1-yl sulfate) mono (2,2,2-trifluoroacetate)]
AB_CL6188 MITC95 [1]: 1.56 µM
EC_CLB30016 MITC95 [2]: >50 µM
KP_CL6569 MITC95 [3]: 0.1 µM
PA_CL5701 MITC95 [4]: 0.78 µM

CC1(C)[C@H](NC(=O)/C(=N\O[C@](C)(C(=O)O)[C@H]2CCc3cc(-c4cn(C[C@@H](O)CN)[n+](C[C@H]5CCNC5)c4)ccc3O2)c2csc(N)n2)C(=O)N1OS(=O)(=O)[O-] [Example 41, mono((S)-3-((Z)-2-(((S)-1-((R)-6-(1-((S)-3-amino-2-hydroxypropyl)-2-(((S)-pyrrolidin-1-ium-3-yl)methyl)-1H-pyrazol-2-ium-4-yl)chroman-2-yl)-1-carboxyethoxy)imino)-2-(2-aminothiazol-4-yl)acetamido)-2,2-dimethyl-4-oxoazetidin-1-yl sulfate) mono (2,2,2-trifluoroacetate)]
AB_CL6188 MITC95 [1]: 1.56 µM
EC_CLB30016 MITC95 [2]: >50 µM
KP_CL6569 MITC95 [3]: 0.1 µM
PA_CL5701 MITC95 [4]: 0.78 µM

(S)-3-((Z)-2-(((S)-1-((R)-6-(1-(3-Aminopropyl)-2-(azetidin-3-ylmethyl)-1H-pyrazol-2-ium-4-yl)chroman-2-yl)-1-carboxyethoxy)imino)-2-(2-aminothiazol-4-yl)acetamido)-2,2-dimethyl-4-oxoazetidin-1-yl Sulfate [Example 3]
AB_CL6188 MITC95 [1]: 6.25 µM
EC_CLB30016 MITC95 [2]: 3.13 µM
KP_CL6569 MITC95 [3]: 0.39 µM
PA_CL5701 MITC95 [4]: 6.25 µM
